One may read the EC50 as the concentration needed to bring the measured effect to its halfway point.

The structures appear in SMILES notation. Active and inactive are the calls of the source. How the calls were made is not given here.

The first assay concerns the target glutathione S-transferase (GST-GSH binding). The assay can be described thus: GST–glutathione interaction disruption – biochemical, multiplex beads, flow cytometry, HPSMTB buffer, profiling panel (AID 1324).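 Further: glutathione beads loaded with GST-green fluorescent protein and no fluorescent Bim peptide.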 Conditions: multiplex bead flow cytometry, MCF. (In general: Flow cytometry measures light scatter and fluorescence of single cells or particles in a stream.)
`COc1cc2[nH]c(=S)nc(NCCc3ccc(S(N)(=O)=O)cc3)c2cc1OC`: the EC50 was 3.63 µM.

Take `COC(=O)c1sc2nc[nH]c(=O)c2c1C`: the EC50 entry was “inactive”. As for `O=C1c2ccccc2-c2onc3ccc(NCc4ccco4)c1c23`, the EC50 result was “inactive”.

The same assay, now with this note: multiplex bead flow cytometry, MCF, active compounds read high, concentration not given here.
As to `CCOc1cc(/C=N/NC(N)=O)ccc1OCC(=O)Nc1ccc(C)c(C)c1`, the percent span inhibition entry was “inactive”. The same measure, in the same setting: to `Cc1cc(C)c2nc3nc(C)c(C)cc3c(N)c2c1` belongs “inactive”; to `Nc1ccc(-c2cn3cccnc3n2)cc1`, “inactive”; to `CCOc1ccccc1NC(=O)CSc1nnc2ccc(-c3cccnc3)nn12`, “inactive”. On the same count and under the same terms, under `COc1ccc(-c2noc(COc3ccc4c(c3)OCO4)n2)cc1OC` stands “inactive”; under `S=c1[nH]cc(-c2ccccc2)n1-c1ccccc1Cl`, “inactive”; under `COc1ccc(N2CCN(C(=O)c3cc(=O)[nH]c4ccccc34)CC2)cc1`, “inactive”. Consider `c1ccc(C2=Nc3cccc4cccc(c34)N2)cc1`, for which the percent span inhibition result was “inactive”. Still for that read-out and setting: to `OC(COc1ccc2cc(Br)ccc2c1)CN1CCOCC1` (centres undefined) belongs “inactive”.

Consider `Cc1cc(/C=C(/C#N)C(=O)Nc2ccc(Cl)cc2)c(C)n1-c1cccnc1`, for which the percent span inhibition result is “inactive”. In the case of `CCCC(=O)OCCNc1cc(Sc2nccn2C)c2nonc2c1[N+](=O)[O-]`, the percent span inhibition result was “inactive”. On the same count and under the same terms, to `COc1cc(NC(=S)NCCCO)c(OC)cc1Cl` belongs “inactive”. Same read-out and setting: under `O=C(c1cnccn1)N1CCN(c2ccccc2F)CC1` stands “inactive”; under `COC(=O)c1c(NC(=O)COc2ncnc3ccccc23)sc(C)c1C`, “inactive”. The same measure, in the same setting: to `COc1ccc(C2CN(C)CC2C(=O)c2ccc(F)cc2)cc1Cl` (centres undefined) belongs “inactive”; to `CCOC(=O)c1nc(Nc2ccc(C(=O)OC)cc2)c2ccccc2n1`, “inactive”.

In the case of `C/C(=N\NC(=O)COc1ccc(C(C)(C)C)cc1)c1ccc2c(c1)OCCO2`, the percent span inhibition result was “inactive”. With `Cc1ccc(C(=O)/C=C/c2ccc(-c3ccc(C)cc3)o2)cc1`, the percent span inhibition entry is “inactive”. For the compound `O=C(/C=C/c1ccc(-c2ccccc2[N+](=O)[O-])o1)c1ccccc1`, the percent span inhibition result was “inactive”. As to `c1ccc(-c2nnc(OCCN3CCOCC3)c3ccccc23)cc1`, the percent span inhibition entry is “inactive”. As to `Cc1cc(Cl)c(S(=O)(=O)NCC2CCCO2)cc1OCC(N)=O` (centres undefined), the percent span inhibition result was “inactive”.

As for `CCN(CC)c1nc(N)nc(N(c2ccccc2)c2ccccc2)n1`, the percent span inhibition entry was “inactive”.

As to `O=C(C[n+]1ccc(-c2nnc3n2CCC3)cc1)c1ccc(Cl)cc1`, the percent span inhibition result was “inactive”. Same read-out and setting: under `O=c1c2c(n3nnnc3n1Cc1ccccc1)-c1ccccc1CC21CCCC1` stands “inactive”. The same measure, in the same setting: to `Cc1cc(C(=O)NCCCN(C)C)c2ccccc2n1` belongs “inactive”.

For the compound `CSc1ccccc1NC(=O)CN(C)CC(=O)Nc1ccc(N2CCOCC2)cc1`, the percent span inhibition entry was “inactive”. Regarding `COc1cc(C=Nc2cccc(C)c2)c(O)c([N+](=O)[O-])c1`, the percent span inhibition result was “inactive”. Same read-out and setting: under `FC(F)(F)c1ccc2c(c1)C1C=CCC1C(c1ccncc1)N2` (centres undefined) stands “inactive”. The same measure, in the same setting: to `CNc1ccc(Br)cc(C(=O)/C=C/c2ccc(OC)cc2)c1=O` belongs “inactive”; to `Cc1cc(C)c(S(=O)(=O)/N=C2/C=C(SCC(=O)O)C(=O)c3ccccc32)cc1C`, “inactive”. For the compound `CCOc1ccc(C2=Nn3c(nnc3-c3ccco3)SC2)cc1`, the percent span inhibition result was “inactive”. As to `COc1ccc(NS(=O)(=O)c2cc(NC(=O)c3ccc(C)o3)ccc2N2CCCCC2)cc1`, the percent span inhibition entry is “inactive”. For `COc1cccc(/C=C2/SC(=O)N(C)C2=O)c1OCc1ccc(C(=O)O)cc1`, the percent span inhibition entry is “inactive”.

Consider `Cc1cccc(-c2nnc3n2N=C(c2ccccc2)CS3)c1`, for which the percent span inhibition result is “inactive”. On the same count and under the same terms, to `COc1ccc(C2=Nn3c(nnc3-c3ccccn3)SC2)cc1OC` belongs “inactive”; to `CC(C)CN1C(=O)/C(=C/c2ccco2)NC1=S`, “inactive”; to `Cn1c(=O)c(C(=O)COC(=O)c2cc(-c3ccco3)nc3ccccc23)c(N)n(Cc2ccccc2)c1=O`, “inactive”. The same measure, in the same setting: to `Cc1ccc(NC2=C(NC(=O)c3ccccc3)C(=O)c3ccccc3C2=O)cc1Cl` belongs “inactive”.

Consider `Cc1onc(-c2ccccc2Cl)c1C(=O)Nc1nn[nH]n1`, for which the percent span inhibition result is “inactive”. The same measure, in the same setting: under `CCc1ccc(NC(=O)CC2NCCNC2=O)cc1` (centres undefined) stands “inactive”; under `CCOc1cc(C2Nc3cccc4cccc(c34)N2)ccc1O`, “inactive”; under `CC(C)(C)NC(=O)COc1ccc(CNc2ccc3[nH]c(=O)[nH]c3c2)cc1`, “inactive”. Same read-out and setting: to `Cc1ccc(C(=O)CCC(=O)Nc2ccc(Cl)c(S(=O)(=O)Nc3cccc(Cl)c3)c2)cc1` belongs “inactive”.

`O=C(N/N=C/c1ccc(O)c(O)c1O)/C(=C/c1ccc([N+](=O)[O-])cc1)NC(=O)c1ccccc1`: the percent span inhibition entry was “inactive”.

With `CCN1CCN(c2cc(C)c3cc(NC(=S)N4CCN(c5ccc(F)cc5)CC4)ccc3n2)CC1`, the percent span inhibition entry was “inactive”. On the same count and under the same terms, under `CCCCCCn1nc(C(=O)Nc2nc3c(s2)CCCC3)c2ccccc2c1=O` stands “inactive”; under `CCOc1ccc(C(=O)Nc2nnn(CC)n2)cc1`, “inactive”; under `O=C(OCC(=O)c1ccc[nH]1)c1ccccc1`, “inactive”. Same read-out and setting: under `Cc1ccc(OCC(=O)NCc2ccccn2)c(Br)c1` stands “inactive”; under `Cc1cnnn1-c1ccc(C(=O)CCl)cc1`, “inactive”; under `COc1cc(/C=C2\S/C(=N/S(=O)(=O)c3ccc(C)cc3)NC2=O)c([N+](=O)[O-])cc1OC`, “inactive”.

On to `COc1ccc(/C=C/C(=O)Nc2sc(Cc3ccccc3)c(C)c2C(N)=O)cc1`, for which the percent span inhibition result was “inactive”. Same read-out and setting: under `O=C1NCCN1C(=O)N(c1ccccc1)c1ccccc1` stands “inactive”. Same read-out and setting: under `O=C(NCCCO)Nc1ccc2nc(-c3ccco3)c(-c3ccco3)nc2c1` stands “inactive”. Regarding `CN(CCCOc1ccccc1Br)Cc1ccccc1`, the percent span inhibition result was “inactive”.

As to `Clc1nc2ccccc2cc1/C=N/Nc1nc2ccccc2[nH]1`, the percent span inhibition result was “inactive”. Turning to `Cc1cccc(NC(=S)N2CCn3cccc3C2c2cccnc2)c1` (centres undefined), the percent span inhibition entry was “inactive”. As for `O=C(CSc1nc2ccsc2c(=O)n1Cc1ccc(C(=O)O)cc1)NCC1CCCO1` (centres undefined), the percent span inhibition entry was “inactive”. Still for that read-out and setting: to `CCN1/C(=C/c2ccc3cc(C)ccc3[n+]2CC)Sc2cc(C)c(C)cc21` belongs “inactive”; to `CN=C(NC1CCCCC1)c1ccc(Cl)cc1`, “inactive”; to `O=C(NC1=C(Nc2ccc(F)cc2)C(=O)c2ccccc2C1=O)c1ccc(Cl)cc1`, “inactive”. In the case of `C(=C\c1ccccc1)/CSc1nnc(-c2ccccn2)n1Cc1ccco1`, the percent span inhibition result is “inactive”.

As to `CCOC(=O)c1cccc(Nc2ncnc3ccccc23)c1`, the percent span inhibition entry was “inactive”.

As for `O=C(Nc1ccccn1)c1cc2ccccc2o1`, the percent span inhibition result is “inactive”.

Consider `O=[N+]([O-])c1ccc(-c2cn(-c3ccc(Cl)cc3)c(=S)[nH]2)cc1`, for which the percent span inhibition entry was “inactive”. On the same count and under the same terms, under `O=C(NCc1ccccc1)c1ccc2nc(-c3ccco3)c(-c3ccco3)nc2c1` stands “inactive”; under `CS(=O)(=O)NN1C(=O)c2ccccc2NC1c1ccccc1` (centres undefined), “inactive”. The same measure, in the same setting: under `COc1cc(CNc2ccc(N3CCCC3)cc2)cc(Cl)c1OC` stands “inactive”; under `CN(C)C(Cc1ccccc1)C(=O)c1cccs1` (centres undefined), “inactive”; under `O=C(O)CC1S/C(=N/N=C/C=C/c2ccccc2[N+](=O)[O-])NC1=O` (centres undefined), “inactive”.

With `O=C(c1ccc(CNS(=O)(=O)c2ccc(Br)cc2)cc1)N1CCCC1`, the percent span inhibition entry is “inactive”. Still for that read-out and setting: to `Cc1ccc2cc(C)c(Sc3nnnn3-c3ccccc3)nc2c1` belongs “inactive”. As for `CC(=O)Nc1ccc2nc(CN3CCN(CC(C)C)C(CCO)C3)ccc2c1` (centres undefined), the percent span inhibition result is “inactive”.

As for `Cc1ccc(C(=O)N/N=C2/NC(=O)CC(C(=O)Nc3ccccc3)S2)cc1` (centres undefined), the percent span inhibition entry is “inactive”. Consider `C/C(=N\NC(=O)COc1ccc(C#N)cc1)c1ccccc1OC(F)F`, for which the percent span inhibition entry is “inactive”. Consider `CCN(CC)CCN(C(=O)c1ccc(N2C(=O)CCC2=O)cc1)c1nc2cc3c(cc2s1)OCCO3`, for which the percent span inhibition entry is “inactive”. On the same count and under the same terms, under `CC1CC2=C(NC(=S)NC2c2ccccc2F)/C(=C/c2ccccc2F)C1` (centres undefined) stands “inactive”. Same read-out and setting: under `Cc1c(Cc2ccccc2)sc(N)c1C(N)=O` stands “inactive”. On the same count and under the same terms, to `Cc1ccc(C(=O)C(C(=O)/C=C/c2ccccc2)=C2SCCCS2)cc1` belongs “inactive”; to `Cc1cccc(N2C(S)=C(C#N)C(=O)NC2c2cccs2)c1` (centres undefined), “inactive”; to `CCOC(=O)/C(=C\c1cccc(O)c1)c1nc2sc(C)c(C)c2c(=O)[nH]1`, “inactive”. As to `Oc1ccc(NCc2ccccc2OCc2ccccc2)cc1`, the percent span inhibition result is “inactive”.

Regarding `Cc1ccc(-c2nnc(Cc3ccc(Cl)cc3)o2)cc1`, the percent span inhibition result was “inactive”. The same measure, in the same setting: under `CCNC(=S)Nc1cc(OCC)c(NC(=O)c2cccs2)cc1OCC` stands “inactive”; under `CCN(CC)c1ccc(-c2nn3c(-c4cccnc4)nnc3s2)cc1`, “inactive”; under `COc1ccc(-n2c(SCC(=O)Nc3ccc(C(=O)O)cc3)nnc2-c2cccs2)cc1`, “inactive”.

Values taken from PubChem BioAssay AID1324 (NMMLSC, 2008).
